From patent publication US11135228B2, “Cysteinyl-proresolving mediators that promote resolution of infection and organ protection” (THE BRIGHAM AND WOMEN'S HOSPITAL, priority 2014, dated 2021)
“Also recorded” adds a separate entry of the source.

Columns and labels:
Human macrophages = assay: Human macrophage efferocytosis of apoptotic PMN; format: cell-based; settings: 10 pM-100 nM, 15 min, then apoptotic PMN 45 min; planarian isolates likewise
Description: Leukocyte phagocytosis: Macrophages were prepared from peripheral blood mononuclear cells (PBMC) purchased from Children's Hospital Blood Bank, Boston, and phagocytosis was assessed as in (11). Briefly, macrophages (5×10^4 cells,/well) were incubated with SCI (10 pM-100 nM), SCII (10 pM-100 nM), MaR1 (10 pM-100 nM), or vehicle (0.1% EtOH in DPBS) for 15 min at 37° C., then fluorescent labeled apoptotic cells were added and cells incubated 45 min at 37° C. Extracellular fluorescence was quenched using Trypan blue (1:15 dilution) and phagocytosis assessed using an M3 SpectraMax plate reader. In select experiments, macrophages (5×10^4 cells/well) or neutrophils (1×10^5 cells/well) were obtained from human healthy volunteers' peripheral blood as in (11) in accordance with Partners Human Research Committee Protocol (#1999P001297), and incubated with H2DCFDA (5 μM, 30 min, 37° C.), then with SCI (10 pM-100 nM), SCI (10 pM-100 nM) or vehicle (0.1% EtOH in DPBS, 15 min, 37° C.) and E. coli (1:50 leukocytes to E. coli, 45 min, 37° C.) Intracellular reactive oxygen species were determined by measuring fluorescence using an M3 SpectraMax plate reader. To assess bacterial phagocytosis, macrophages (5×10^4 cells/well) or neutrophils (1×10^5 cells/well) were incubated with SCI (10 pM-100 nM), SCII (10 pM-100 nM) or vehicle (0.1% EtOH in DPBS, 15 min, 37° C.), then incubated with BacLight Green (Molecular Probes) labeled E. coli (1:50 leukocytes to E. coli, 45 min, 37° C.), Extracellular fluorescence was quenched using Trypan blue (1:15 dilution), and phagocytosis assessed using an M3 SpectraMax plate reader.
In determined experiments, human macrophages were incubated with SC isolates from regenerating planaria for 15 min at 37° C., then fluorescent labeled apoptotic cells were added and efferocytosis was assessed as detailed above.
Macrophage bacterial phagocytosis, efferocytosis, and phagolysosontal acidification: Human macrophages were plated in 96-well plates (5×10^4 cells per well) for 24 h, and phagocytosis or efferocytosis was assessed as in (14). In brief, apoptotic PMNs were obtained by culturing cells overnight in PBS^−/− (5×10^6 cells/ml). Apoptotic human PMNs were labeled with bisbenzimide H33342 trihydrochloride (Sigma-Aldrich). Human macrophages were incubated with 0.1-10 nM concentration of test products, and then labeled apoptotic PMNs were cocultured with macrophages for 40 min [37° C. […]]. Fluorescence was read on a SpectraMax M3 plate reader (Molecular Devices, Sunnyvale, Calif., USA), and results were analyzed using SoftMax Pro (Molecular Devices).

[1] = tested on: Mice (hind-limb ischemia/reperfusion); assay: Hind-limb ischemia reperfusion, second organ reflow injury; format: in vivo, mouse; settings: for protection from leukocyte-mediated tissue damage: SCI (50 ng) plus SCII (50 ng) i.v. 10 min prior to reperfusion, lung H&E; for Ki67 and RSPO3 in lung sections (immunofluorescence), tissue repair / plasma eicosanoid levels, including LTB4, LTC4 and TxB2: SCI plus SCII 50 ng each i.v.
Description: Ischemia Reperfusion: Mice were anesthetized by intraperitoneal (i.p.) injection of […]. To initiate hind-limb ischemia, tourniquets consisting of a rubber band were placed on each hind limb. Ten min prior to the initiation of reperfusion, Vehicle (saline containing 0.1% EtOH), SCI (50 ng) plus SCII (50 ng) or Resolvin D1 (500 ng) were administered by intravenous injection. At the end of reperfusion (3 h), mice were euthanized, blood collected via cardiac puncture and plasma isolated for lipid mediator metabololipidomics. Lungs were harvested, left lungs were frozen in liquid nitrogen and stored at −80° C. Right lungs were stored in 10% (v/v) buffered formalin and processed for histology and hematoxylin and eosin (H&E) staining by the Children's Hospital Boston Core Histology Facility, imaged using a Keyence BZ-9000 microscope and BZ II imaging software (Keyence) Expression of Ki67 and Roof plate-specific Spondin-3 (RSPO3) were assessed by immunofluorescence staining. Briefly, sections were deparafinized in xylene and rehydrated, then blocked in 10% horse serum and stained with either rat anti-mouse RSPON3 antibody (R&D Systems) for 1 h at room temperature and then with sheep anti-rat Alexa-594 conjugated antibody (BioLegend), or with rabbit anti-mouse antibody (Abeam) and then with donkey anti-rabbit Alexa-488 antibody (BioLegend). Slides were mounted in Vector Shield mounting solution with DAPI (Vector Labs) and immunofluorescence assessed using a Zeiss LSM 510 Meta confocal microscope. Images were processed using ImageJ software (National Institutes of Health) and Adobe Photoshop CS6 (Adobe Systems incorporated) software. Frozen lungs were gently dispersed, centrifuged, and tissue myeloperoxidase (MPO) levels were determined using mouse MPO ELISA (R&D Systems).

E. coli = assay: Murine E. coli peritonitis: leukocyte counts, resolution indices, in vivo phagocytosis; set-up: species or system mouse; settings: for leukocyte phagocytosis of E. coli in vivo: co-administration of SCI and SCII 50 ng each, i.p.; for resolution of infections in mice: co-administration of equal amounts of SCI and SCII
Description: Murine Peritonitis: Mouse experiments were conducted in accordance with guidelines from Harvard Medical Area Standing Committee on Animals (protocol no. 02570). Mice were inoculated with E. coli (serotype 06:K2:H1) as in (11) and peritoneal exudates were collected by lavaging the peritoneal cavity with 4 ml of PBS (without calcium and magnesium) at the indicated intervals. Leukocytes were enumerated by light microscopy using nuclear morphology staining with Turks solution and flow cytometry probing for CD11b-PerCP/Cy5.5 (eBioscience, clone: M1/70), F4/80-PE (eBioscience, BM8) and Ly6G-FITC (eBioscience, clone: 1A8) as in (11). For product isolation, 24 h peritoneal exudates were collected and 2 volumes of ice-cold methanol were added. Isolates were obtained as detailed in the lipid mediator metabotolipidomics section.
In select experiments 12 h after E. coli inoculation, mice were administered either 100 ng of SCI and SCII (50 ng/each per mouse) or vehicle (saline containing 0.1% ethanol (EtOH)) via i.p. injection. Peritoneal exudates were then collected and leukocyte counts determined as above. Assessment of leukocyte phagocytosis of E. coli in inflammatory exudates was conducted as in (11). Briefly cells were incubated with anti-CD11b-Per(T/Cy5.5 conjugated antibody; subsequently the cells were permeabilized using BD Cytofix/Cytoperm™ Fixation/Permeabilization Kit following manufacturer's instructions; cells were then incubated with a FITC conjugated anti-E. coli antibody (GTX40856; GeneTex) and phagocytosis assessed as mean fluorescence in the CD11b- positive cell population.
Resolution indices were calculated as in (11) where Ψmax=the maximal PMN numbers in the exudates; Tmax=the time point when PMN numbers reach maximum; R50=50% of maximal PMN numbers; T50=the time point when PMN numbers reduce to 50% of maximum; Ri (resolution interval)=T50−Tmax, the time period when 50% PMN are lost from the exudates.

CCC=CCC=CCC(O)C(C=CC=CC=CCC=CCCC(=O)O)SCC(N)C(=O)NCC(=O)O (stereo not drawn) [SCII, 13-cysteinylglycinyl, 14-hydroxy-docosahexaenoic acid]
macrophage efferocytosis of apoptotic cells (Human macrophages): dose-dependently increased; also recorded: Stimulates human
protection from leukocyte-mediated tissue damage [1]: Protects from neutrophil
Ki67 and RSPO3 in lung sections (immunofluorescence), tissue repair [1]: Promotes tissue repair
plasma eicosanoid levels, including LTB4, LTC4 and TxB2 [1]: Reduces systemic
leukocyte phagocytosis of E. coli in vivo (E. coli): Stimulates mouse
resolution of infections in mice (E. coli): Promotes resolution of

13-glutathionyl, 14-hydroxy-docosahexaenoic acid [SCI]
macrophage efferocytosis of apoptotic cells (Human macrophages): dose-dependently increased; also recorded: Stimulates human
protection from leukocyte-mediated tissue damage [1]: Protects from neutrophil
Ki67 and RSPO3 in lung sections (immunofluorescence), tissue repair [1]: Promotes tissue repair
plasma eicosanoid levels, including LTB4, LTC4 and TxB2 [1]: Reduces systemic
leukocyte phagocytosis of E. coli in vivo (E. coli): Stimulates mouse
resolution of infections in mice (E. coli): Promotes resolution of
